# Patent publication US8134015B2, “Compound inhibiting in vivo phosphorous transport and medicine containing the same” (Kyowa Hakko Kirin Co., Ltd., priority 2003, dated 2012)
# Target: T1, rat NaPi-2b (Rattus norvegicus, UniProt Q9JJ09)
# T1 construct: expressed in transfected cells; host or cells: Xenopus oocytes injected with cRNA
# T1 sequence (Q9JJ09 1-695): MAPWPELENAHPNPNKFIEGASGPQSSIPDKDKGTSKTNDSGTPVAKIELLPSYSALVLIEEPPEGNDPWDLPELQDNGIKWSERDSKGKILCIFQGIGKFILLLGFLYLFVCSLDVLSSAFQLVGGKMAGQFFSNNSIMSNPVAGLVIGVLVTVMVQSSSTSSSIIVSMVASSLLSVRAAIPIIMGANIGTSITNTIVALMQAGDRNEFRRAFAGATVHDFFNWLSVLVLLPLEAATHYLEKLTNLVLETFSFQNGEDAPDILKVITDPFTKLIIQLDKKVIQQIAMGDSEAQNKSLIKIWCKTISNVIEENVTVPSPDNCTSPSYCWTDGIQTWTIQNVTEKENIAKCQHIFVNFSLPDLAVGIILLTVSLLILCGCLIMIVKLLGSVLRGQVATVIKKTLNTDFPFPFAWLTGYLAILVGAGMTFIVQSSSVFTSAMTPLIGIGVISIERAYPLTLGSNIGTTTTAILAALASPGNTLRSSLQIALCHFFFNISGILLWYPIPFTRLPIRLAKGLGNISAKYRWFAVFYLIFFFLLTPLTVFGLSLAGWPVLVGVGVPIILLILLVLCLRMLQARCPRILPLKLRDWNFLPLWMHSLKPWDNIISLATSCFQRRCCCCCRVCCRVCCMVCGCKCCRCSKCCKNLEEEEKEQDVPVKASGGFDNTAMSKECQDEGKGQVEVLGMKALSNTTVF
# Assay: Sodium-dependent phosphate uptake of Xenopus oocytes which expressed NaPi-2b (32P)
# Type: cell-based
# Details: for inhibition at 300 µM: phosphate uptake, oocytes expressing rat NaPi-2b, determined from inhibition curve; for IC50: Xenopus oocytes expressing rat NaPi-2b, 32P radioactive phosphorus, read-out: IC50 (phosphate uptake inhibitory activity)
# Method in brief: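 Oocytes injected with rat NaPi-2b cRNA, cultured 2 d, then 32P uptake measured with compound. Values: % inhibition at 300 and 100 μM, both from one inhibition curve.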
Compound,inhibition at 300 µM,IC50
"Cc1ccc(/C=N/NC(=O)c2scc(C)c2NC(=O)c2cccc(CSCCCO)c2)cc1 [Compound 526, 3-(3-Hydroxy-propylsulfanylmethyl)-N-[4-methyl-2-(4-methyl-benzylidene-hydrazinocarbonyl)-thiophen-3-yl]-benzamide]",40.2%,
"O=C(Nc1ccc(Br)cc1C(=O)N/N=C/c1ccc(F)cc1)c1ccccn1 [Compound 496, Pyridin-2-carboxylic acid [4-bromo-2-(4-fluoro-benzylidene-hydrazinocarbonyl)-phenyl]-amide]",,0.64 µM
"CCN(CCO)Cc1cccc(C(=O)Nc2ccc(Cl)cc2C(=O)N/N=C/c2ccc(OC)cc2)c1 [Compound 429, N-[4-Chloro-2-(4-methoxy-benzylidene-hydrazinocarbonyl)-phenyl]-3-{[ethyl-(2-hydroxy-ethyl)-amino]-methyl}-benzamide]",,5.88 µM
"Cc1csc(NC(=O)c2cccc(CSCCCO)c2)c1C(=O)N/N=C/c1ccc(Cl)c(C(F)(F)F)c1 [Compound 561, N-[3-(4-Chloro-3-trifluoromethyl-benzylidene-hydrazinocarbonyl)-4-methyl-thiophen-2-yl]-3-(3-hydroxy-propylsulfanylmethyl)-benzamide]",,0.31 µM
"O=C(Nc1ccc(Cl)cc1C(=O)N/N=C/c1ccc(Cl)c(C(F)(F)F)c1)c1cccc(C[S+]([O-])Cc2ccco2)c1 (stereo not drawn) [Compound 689, N-[4-Chloro-2-(4-chloro-3-trifluoromethyl-benzylidene-hydrazinocarbonyl)-phenyl]-3-(furan-2-ylmethanesulfinylmethyl)-benzamide]",,< 3 µM
"CCN(CC)CCN(C)Cc1cccc(C(=O)Nc2c(C)csc2C(=O)N/N=C/c2cccc(F)c2)c1 [Compound 529, 3-{[(2-Diethylamino-ethyl)-methyl-amino]-methyl}-N-[2-(3-fluoro-benzylidene-hydrazinocarbonyl)-4-methyl-thiophen-3-yl]-benzamide]",81%,
"CN(CCO)Cc1ccc(C(=O)Nc2ccc(Cl)cc2C(=O)N/N=C/c2ccc(Cl)c(C(F)(F)F)c2)cc1 [Compound 417, N-[4-Chloro-2-(4-chloro-3-trifluoromethyl-benzylidene-hydrazinocarbonyl)-phenyl]-4-{[(2-hydroxy-ethyl)-methyl-amino]-methyl}-benzamide]",,< 3 µM
"CCN(CC)CCN(C)Cc1cccc(C(=O)Nc2ccc(N3CCOCC3)cc2C(=O)N/N=C/c2ccc(OC)cc2)c1 [Compound 1076, 3-{[(2-Diethylamino-ethyl)-methyl-amino]-methyl}-N-[2-(4-methoxy-benzylidene-hydrazinocarbonyl)-4-morpholin-4-yl-phenyl]-benzamide]",,2.57 µM
"C/C(=N\NC(=O)c1cc(Br)ccc1NC(=O)c1cccnc1)c1ccc(C)cc1 [Compound 216, N-[4-Bromo-2-(1-p-toluyl-ethylidene-hydrazinocarbonyl)-phenyl]-nicotinamide]",,21.8 µM
"CCN(CC)CC(O)COc1ccc(NC(=O)c2cccc(CN(CC(C)O)CC(C)O)c2)c(C(=O)N/N=C/c2ccc(C)c(C)c2)c1 (stereo not drawn) [Compound 951, 3-{[Bis-(2-hydroxy-propyl)-amino]-methyl}-N-[4-(3-diethylamino-2-hydroxy-propoxy)-2-(3,4-dimethyl-benzylidene-hydrazinocarbonyl)-phenyl]-benzamide]",68.5%,
"Cc1ccc(/C=N/NC(=O)c2c(NC(=O)c3cccc(CN4CCC(N5CCCCC5)CC4)c3)sc3c2CCCC3)cc1 [Compound 616, 3-[1,4′]Bipiperidinyl-1′-ylmethyl-N-[3-(4-methyl-benzylidene-hydrazinocarbonyl)-4,5,6,7-tetrahydro-benzo[b]thiophen-2-yl]-benzamide]",,13.9 µM
"COc1ccc(C(=O)Nc2ccc(Br)cc2C(=O)NNCc2ccc(C)cc2)cc1OC [Compound 367, N-{4-Bromo-2-[N′-(4-methyl-benzyl)-hydrazinocarbonyl]-phenyl}-3,4-dimethoxy-benzamide]",,6.88 µM
"O=C(Nc1ccccc1C(=O)N/N=C/c1ccc(F)cc1)c1ccccc1F [Compound 38, 2-Fluoro-N-[2-(4-fluoro-benzylidene-hydrazinocarbonyl)-phenyl]-benzamide]",,5.64 µM

# Results, then the compound that gave them:
inhibition at 300 µM,IC50,Compound
,1 µM,"Cc1ccc(/C=N/NC(=O)c2cc(N3CCCCC3)ccc2NC(=O)c2cccc(CN3CCC(O)CC3)c2)cc1 [Compound 871, 3-(4-Hydroxy-piperidin-1-ylmethyl)-N-[2-(4-methyl-benzylidene-hydrazinocarbonyl)-4-piperidin-1-yl-phenyl]-benzamide]"
,1.41 µM,"COc1ccc(C(=O)Nc2ccccc2C(=O)N/N=C/c2cccc(F)c2)cc1OC [Compound 15, N-[2-(3-Fluoro-benzylidene-hydrazinocarbonyl)-phenyl]-3,4-dimethoxy-benzamide]"
58.8%,,"CCN(CC)CCN(C)Cc1cccc(C(=O)Nc2cc(OCCOC)c(OCCOC)cc2C(=O)N/N=C/c2ccc(Cl)c(C(F)(F)F)c2)c1 [Compound 1031, N-[2-(4-Chloro-3-trifluoromethyl-benzylidene-hydrazinocarbonyl)-4,5-bis-(2-methoxy-ethoxy)-phenyl]-3-{[(2-diethylamino-ethyl)-methyl-amino]-methyl}-benzamide]"
,< 3 µM,"O=C(Nc1ccc(I)cc1C(=O)N/N=C/c1ccc(Cl)c(C(F)(F)F)c1)c1cccc(CN2CCC(N3CCCCC3)CC2)c1 [Compound 487, 3-[1,4′]Bipiperidinyl-1′-ylmethyl-N-[2-(4-chloro-3-trifluoromethyl-benzylidene-hydrazinocarbonyl)-4-iodo-phenyl]-benzamide]"
,6.13 µM,"COc1ccc(/C=N/NC(=O)c2cc(Cl)ccc2NC(=O)c2cccc(CN(C)CCO)c2)cc1 [Compound 401, N-[4-Chloro-2-(4-methoxy-benzylidene-hydrazinocarbonyl)-phenyl]-3-{[(2-hydroxy-ethyl)-methyl-amino]-methyl}-benzamide]"
,5.02 µM,"COc1ccc(NC(=O)c2ccc(OC)c(OC)c2)c(C(=O)N/N=C/c2ccc(C)cc2)c1 [Compound 144, 3,4-Dimethoxy-N-[4-methoxy-2-(4-methyl-benzylidene-hydrazinocarbonyl)-phenyl]-benzamide]"
,4.52 µM,"Cc1cccc(/C=N/NC(=O)c2ccccc2NC(=O)c2ccncc2)c1 [Compound 136, N-[2-(3-Methyl-benzylidene-hydrazinocarbonyl)-phenyl]-isonicotinamide]"
,7.41 µM,"Cc1ccc(C)c(/C=N/NC(=O)c2ccccc2NC(=O)c2ccccc2F)c1 [Compound 46, N-[2-(2,5-Dimethyl-benzylidene-hydrazinocarbonyl)-phenyl]-2-fluoro-benzamide]"
,1.48 µM,"O=C(Nc1ccc(Br)cc1C(=O)N/N=C/c1ccc(F)cc1)c1ccco1 [Compound 152, Furan-2-carboxylic acid [4-bromo-2-(4-fluoro-benzylidene-hydrazinocarbonyl)-phenyl]-amide]"
,10.7 µM,"COc1ccc(/C=N/NC(=O)c2cc(Br)ccc2NC(=O)c2ccc(CN3CCC(O)CC3)cc2)cc1 [Compound 330, N-[4-Bromo-2-(4-methoxy-benzylidene-hydrazinocarbonyl)-phenyl]-4-(4-hydroxy-piperidin-1-ylmethyl)-benzamide]"
,7.82 µM,"Cc1cccc(/C=N/NC(=O)c2cc(Br)ccc2NC(=O)c2ccc(CN3CCC(N4CCCCC4)CC3)cc2)c1 [Compound 310, 4-[1,4′]Bipiperidinyl-1′-ylmethyl-N-[4-bromo-2-(3-methyl-benzylidene-hydrazinocarbonyl)-phenyl]-benzamide]"
